Experimental data taken from patent US8901305B2, “Aryl lactam kinase inhibitors” (Bristol-Myers Squibb Company, priority 2012, dated 2014).

Experiments:
[1] = molecular target: T1, AAK1 (full length human) with AP2M1 in HEK293F cells (Homo sapiens, UniProt Q2M2I8); assay: HEK281 cell-based assay (phospho-mu2 Western blot in transfected HEK293F cells); conditions: 3 hours, inhibition of mu2 phosphorylation
T1 construct: expressed in transfected cells; host or cells: HEK293F
Protocol: HEK293F cells were cultured in media containing DMEM (Gibco, cat. #11965), 10% FBS (SAFC Biosciences, cat. #12103C), 1×GPS (glutamine, penicillin and streptomycin). On day one, cells were plated on a 10 cm dish so that they are ˜80% confluent at time of transfection. Roughly 12 million cells were in a 10 cm dish at time of transfection. On day two, each dish was transfected with 48 ug DNA and 144 ul Lipofectamine 2000 (Invitrogen, cat. #11668-019). The DNA was comprised of a mixture (per 10 cm dish) containing 3 ug AAK1/HA/pIRES (full length human, NCBI accession no. NP_055726.2), 45 μg Flag/AP2MI/pcDNA (full length human), and 1.5 ml OPTI-MEM. The Lipofectamine 2000 is made up of a mixture (per 10 cm dish) containing 144 μl Lipofectamine 2000 and 1.5 ml OPTI-MEM. Each mixture was transferred to individual 15 ml tubes and incubated at RT for 5 minutes, and then the two mixes were combined and incubated at RT for 20 minutes. Growth media was then aspirated from each 10 cm plate and replaced with 10 ml of DMEM+10% FBS (no GPS). Finally, 3 ml DNA/Lipofectamine mix was added to each 10 cm dish and mix gently followed by incubate of plate overnight at 37° C. and 5% CO2.
On day three, compounds were diluted in 100% DMSO at 1000× final concentration, followed by 3-fold serial dilutions for a total of 5 concentrations tested. Four compounds were tested per 10 cm dish. One ul of each compound dilution was then pipetted into a deep-well, 96-well plate, followed by addition of 500 μl DMEM+0.5% FBS into each well for a 2× final concentration of each compound. Cells were resuspended in a 10 cm dish by simple pipetting (HEK293 cells come off the plate that easy at this point) and then transferred to a 50 ml conical tube and pelleted by centrifugation at 1000 rpm for 5 min. Cell pellets were then resuspended in 2.75 ml DMEM+0.5% FBS per 10 cm dish and 100 μl of cell suspension transferred into each well of 96-well TC plate. Finally, 100 μl of 2× compound diluted in DMEM+0.5% FBS was then added into wells containing cell suspension for a 1× final concentration. Plates were then incubated at 37° C. and 5% CO2 for 3 hours followed by transferring of cell suspensions from each well into 12-tube PCR strips. The PCR strips were spun in a tip rack at 1000 rpm for 5 minutes to pellet cells and media was then removed by pipetting without disturbing the cell pellet.
To prepare for Western Blot analysis, cell pellets were resuspend in 40 ul 1×LDS-PAGE sample buffer (Invitrogen, cat. # NP0008)+2× Halt phosphatase and protease inhibitor cocktail (Thermo Scientific, cat. #1861284), followed by sonicating each with microtip sonicator set at 5 for 8-10 seconds. Five ul of 10× NuPage Sample Reducing Agent (with […]) was to each sample followed by heat denaturing at 70 C for 10 min on PCR machine. A total of 10 μl per sample was loaded into each lane of a 4-20% Tris-Glycine Criterion 26-well gel (Biorad, cat. #345-0034) for the phospho-mu2 blot and 10 μl per lane in a 4-12% Bis-Tris (+MES buffer) NuPAGE 26-well gel (Invitrogen, cat. # WG1403BX10) for the mu2 blot. For controls, 2 ng of phospho-mu2 or 20 ng mu2/Flag proteins were loaded in the last well of each gel. After SDS-PAGE, samples on each gel were transferred to PVDF membrane using an iBlot and membranes were blocked for one hour in TBST+5% milk, followed by wash 3× for 5-10 min with TBST. Criterion gels were probed with rabbit anti-phospho-mu2 (1:5000; a rabbit polyclonal antibody produced by New England Peptide and affinity purified at Lexicon) in TBST+5% BSA, whereas, NuPAGE gels were probed with mouse anti-Flag (1:500; Sigma, cat. # F1804) in TBST+5% milk, and these primary antibodies were incubated overnight at 4° C. on a rocker. […]

[2] = molecular target: T2, GST-Xa-hAAK1 (Homo sapiens, UniProt Q2M2I8); assay: AAK1 kinase assay; type: biochemical; conditions: ATP 22 μM, 3 hours at room temperature
T2 construct: made in house
T2 sequence (Q2M2I8 whole entry): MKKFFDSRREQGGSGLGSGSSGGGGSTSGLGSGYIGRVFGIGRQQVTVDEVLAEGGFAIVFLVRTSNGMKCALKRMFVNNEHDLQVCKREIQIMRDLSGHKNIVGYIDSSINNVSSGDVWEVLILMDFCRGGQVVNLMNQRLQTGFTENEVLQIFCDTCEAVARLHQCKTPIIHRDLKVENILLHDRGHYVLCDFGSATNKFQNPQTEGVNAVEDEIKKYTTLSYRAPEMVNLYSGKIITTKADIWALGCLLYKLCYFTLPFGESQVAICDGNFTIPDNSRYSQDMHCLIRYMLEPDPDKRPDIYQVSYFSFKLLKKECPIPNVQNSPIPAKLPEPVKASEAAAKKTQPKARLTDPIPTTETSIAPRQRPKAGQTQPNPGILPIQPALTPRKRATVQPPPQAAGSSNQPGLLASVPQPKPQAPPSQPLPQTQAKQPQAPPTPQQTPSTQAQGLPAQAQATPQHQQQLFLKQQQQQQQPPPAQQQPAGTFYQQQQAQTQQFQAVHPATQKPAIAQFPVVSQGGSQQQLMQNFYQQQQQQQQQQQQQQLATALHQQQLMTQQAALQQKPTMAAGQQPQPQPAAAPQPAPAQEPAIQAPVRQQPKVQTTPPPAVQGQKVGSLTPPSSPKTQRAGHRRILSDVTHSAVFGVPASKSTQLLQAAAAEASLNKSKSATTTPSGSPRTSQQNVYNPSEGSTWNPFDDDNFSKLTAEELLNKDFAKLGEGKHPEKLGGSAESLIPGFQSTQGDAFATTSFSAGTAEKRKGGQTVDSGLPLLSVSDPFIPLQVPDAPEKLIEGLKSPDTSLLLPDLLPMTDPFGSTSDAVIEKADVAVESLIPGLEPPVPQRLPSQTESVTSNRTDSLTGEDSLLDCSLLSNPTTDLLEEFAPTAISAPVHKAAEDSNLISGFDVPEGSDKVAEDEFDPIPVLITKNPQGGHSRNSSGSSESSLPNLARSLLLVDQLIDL
Protocol: The assays were performed in U-bottom 384-well plates. […] The reactions were initiated by the combination of bacterially expressed, GST-Xa-hAAK1 with substrates and test compounds. The reactions were incubated at room temperature for 3 hours and terminated by adding 60 μl of 35 mM EDTA buffer to each sample. The reactions were analyzed on the Caliper LabChip 3000 (Caliper, Hopkinton, Mass.) by electrophoretic separation of the fluorescent substrate and phosphorylated product. […] Compounds were dissolved at 10 mM in dimethylsulfoxide (DMSO) and evaluated at eleven concentrations. IC50 values were derived by non-linear regression analysis.

T1 sequence (Q2M2I8 whole entry): as above

Row | SMILES | IC50 [1] [nM] | IC50 ([2]; given as IC50 range) [nM] | also measured
1 | Cc1nccc2c1c(=O)n(C)c1cc(OC(C)[C@@H](N)CC(C)C)ccc21 (mixture of isomers) [Example 33, 8-(((2S,3S)-3-amino-5-methylhexan-2-yl)oxy)-4,6 dimethylbenzo[c][2,7]naphthyridin-5(6H)-one] | 11 | 10 to 100 | 
2 | Cc1nccc2c1c(=O)n(C)c1cc(OC[C@](C)(N)CC(C)C)ccc21 (single isomer, unassigned) [Example 37] |  |  | IC50 ([1]; given as IC50 range): 10 to 100 nM; IC50 [2]: 3.9 nM
3 | CC(C)CC(C)(N)COc1ccc2c3ccncc3c(=O)n(C)c2c1 (single isomer, unassigned) [Example 58, 8-((2-amino-2,4-dimethylpentyl)oxy)-6-methylbenzo[c][2,7]naphthyridin-5(6H)-one] |  |  | IC50 ([1]; given as IC50 range): 10 to 100 nM; IC50 [2]: 11 nM
4 | CC(C)CC(C)(N)COc1ccc2c3ccncc3c(=O)n(C)c2c1 (single isomer, unassigned) [Example 59, 8-((2-amino-2,4-dimethylpentyl)oxy)-6-methylbenzo[c][2,7]naphthyridin-5(6H)-one] |  | 1 to 10 | IC50 ([1]; given as IC50 range): 10 to 100 nM
5 | Cc1nccc2c1c(=O)n(C)c1cc(OC[C@@H](N)CC(C)C(F)(F)F)ccc21 (single isomer, unassigned) [Example 88] |  | 1 to 10 | IC50 ([1]; given as IC50 range): 10 to 100 nM
6 | CC(C)C[C@H](N)COc1ccc2c(c1)[nH]c(=O)c1cnccc12 [Example 1, (S)-8-(2-amino-4-methylpentyloxy)benzo[c][2,7]naphthyridin-5(6H)-one] | 14 |  | IC50 [2]: 5.7 nM
7 | CC(C)C[C@H](N)COc1ccc2c3ccncc3c(=O)n(C)c2c1 [Example 2, (S)-8-((2-amino-4-methylpentyl)oxy)-6-methylbenzo[c][2,7]naphthyridin-5(6H)-one] | 7 | 1 to 10 | 
8 | CC(C)C[C@H](N)COc1cc2c(cc1Br)c1ccncc1c(=O)n2C [Example 3, (S)-8-((2-amino-4-methylpentyl)oxy)-9-bromo-6-methylbenzo[c][2,7]naphthyridin-5(6H)-one] | 1.6 |  | IC50 [2]: 2.7 nM
9 | Cc1cc2c3ccncc3c(=O)n(C)c2cc1OC[C@@H](N)CC(C)C [Example 4, (S)-8-((2-amino-4-methylpentyl)oxy)-6,9-dimethylbenzo[c][2,7]naphthyridin-5(6H)-one] | 2.4 |  | 
10 | CC(C)C[C@H](N)COc1cc2c(cc1C#N)c1ccncc1c(=O)n2C [Example 5, (S)-8-((2-amino-4-methylpentyl)oxy)-6-methyl-5-oxo-5,6 dihydrobenzo[c][2,7]naphthyridine-9-carbonitrile] | 2.5 |  | 
11 | CC(C)C[C@H](N)COc1c(Cl)cc2c3ccncc3c(=O)n(C)c2c1Cl [Example 10, (S)-8-((2-amino-4-methylpentyl)oxy)-7,9-dichloro-6-methylbenzo[c][2,7]naphthyridin-5(6H)-one] | 29 |  | 
12 | Cc1nccc2c1c(=O)n(C)c1cc(OC[C@@H](N)CC(C)C)c(C(F)F)cc21 [Example 27, (S)-8-((2-amino-4-methylpentyl)oxy)-9-(difluoromethyl)-4,6-dimethylbenzo[c][2,7]naphthyridin-5(6H)-one] | 0.3 |  | 
13 | CC(C)C[C@H](N)COc1cc2c(cc1Cl)c1ccncc1c(=O)n2C [Example 43, (S)-8-((2-amino-4-methylpentyl)oxy)-9-chloro-6-methylbenzo[c][2,7]naphthyridin-5(6H)-one] | 5 |  | 
14 | Cc1nccc2c1c(=O)[nH]c1cc(OC[C@@H](N)CC(C)C)c(Br)cc12 [Example 49, (S)-8-(2-amino-4-methylpentyloxy)-9-bromo-4-methylbenzo[c][2,7]naphthyridin-5(6H)-one] | 0.6 |  | 
15 | CN[C@H](COc1cc2c(cc1C#N)c1ccnc(C)c1c(=O)n2C)CC(C)C [Example 65, (S)-4,6-dimethyl-8-(4-methyl-2-(methylamino)pentyloxy)-5-oxo-5,6-dihydrobenzo[c][2,7]naphthyridine-9-carbonitrile] |  |  | IC50 ([1]; given as IC50 range): 1 to 10 nM
16 | Cc1nccc2c1c(=O)n(C)c1cc(OC[C@@H](N)CC(C)C)c(S(C)(=O)=O)cc21 [Example 76, (S)-8-(2-amino-4-methylpentyloxy)-4,6-dimethyl-9-(methylsulfonyl)benzo[c][2,7]naphthyridin-5(6H)-one] |  | 100 to 2000 | 
17 | COCCn1c(=O)c2c(C)nccc2c2ccc(OC[C@@H](N)CC(C)C)cc21 [Example 80, (S)-8-((2-amino-4-methylpentyl)oxy)-6-(2-methoxyethyl)-4-methylbenzo[c][2,7]naphthyridin-5(6H)-one] |  |  | IC50 [2]: 134 nM
18 | Cc1nccc2c1c(=O)[nH]c1c(F)c(OC[C@@H](N)CC(C)C)ccc12 [Example 82, (S)-8-(2-amino-4-methylpentyloxy)-7-fluoro-4-methylbenzo[c][2,7]naphthyridin-5(6H)-one] |  |  | IC50 [2]: 150 nM
19 | COc1cc2c3ccnc(C)c3c(=O)n(C)c2cc1OC[C@@H](N)CC(C)C [Example 89, (S)-8-((2-amino-4-methylpentyl)oxy)-9-methoxy-4,6-dimethylbenzo[c][2,7]naphthyridin-5(6H)-one] |  | 1 to 10 | 
20 | Cc1nccc2c1c(=O)n(C)c1cc(OC[C@@H](N)CC(C)C)c(OC(F)F)cc21 [Example 90, (S)-8-((2-amino-4-methylpentyl)oxy)-9-(difluoromethoxy)-4,6-dimethylbenzo[c][2,7]naphthyridin-5(6H)-one] |  | 10 to 100 | 
21 | Cn1c(=O)c2cnccc2c2ccc(OCC(N)CC(F)(F)F)cc21 (stereo not shown) [Example 93, 8-(2-amino-4,4,4-trifluorobutoxy)-6-methylbenzo[c][2,7]naphthyridin-5(6H)-one] |  | 10 to 100 | 
22 | CN[C@H](COc1ccc2c3ccnc(C)c3c(=O)n(C)c2c1)CC(C)C [Example 95, (S)-4,6-dimethyl-8-(4-methyl-2-(methylamino)pentyloxy)benzo[c][2,7]naphthyridin-5(6H)-one] |  | 10 to 100 | 
23 | Cc1nccc2c1c(=O)n(C)c1cc(OC[C@@H](N)CC(C)C)c(C(=O)N(C)C)cc21 [Example 96, (S)-8-((2-amino-4-methylpentyl)oxy)-N,N,4,6-tetramethyl-5-oxo-5,6-dihydrobenzo[c][2,7]naphthyridine-9-carboxamide] |  | 100 to 2000 | 
24 | Cc1nccc2c1c(=O)[nH]c1c(F)c(OC[C@@H](N)CC(C)C)c(Br)cc12 [Example 100, (S)-8-(2-amino-4-methylpentyloxy)-9-bromo-7-fluoro-4-methylbenzo[c][2,7]naphthyridin-5(6H)-one] |  | 1 to 10 | 
25 | Cc1nccc2c1c(=O)[nH]c1cc(OCC(C)(N)CC(C)C)c(F)cc12 (stereo not shown) [Example 102, 8-(2-amino-2,4-dimethylpentyloxy)-9-fluoro-4-methylbenzo[c][2,7]naphthyridin-5(6H)-one] |  | 1 to 10 | 
26 | Cc1nccc2c1c(=O)[nH]c1c(F)c(OCC(C)(N)CC(C)C)ccc12 (stereo not shown) [Example 105, 8-(2-amino-2,4-dimethylpentyloxy)-7-fluoro-4-methylbenzo[c][2,7]naphthyridin-5(6H)-one] |  | 10 to 100 | 
